Paper PMC10463376, “Design, synthesis, in vitro anticancer, molecular docking and SAR studies of new series of pyrrolo[2,3-d]pyrimidine derivatives” (BMC Chemistry, 2023)
Values after ≈ are worked out from the molar mass of the structure shown. “Also recorded” adds a separate entry of the source. Read-outs that look alike come from different tables or passages of the source.

How the values were obtained:
[1] = test system: MCF7 breast cancer cells; assay: MTT assay, MCF7; settings: for IC50 / cytotoxicity at 100 µg/mL: Homo sapiens, MCF7, 72 h; for IC50: read-out: IC50 MCF7; for cytotoxicity at 100 µg/mL / cytotoxicity: read-out: MTT cell proliferation mortality assay (%) MCF7; for cytotoxicity: at 100 μg/ml, 72 h
Excerpt: (§1) All of the following steps were done in a sterile Laminar flow class II biosafety cabinet (Baker, SG406INT, Sanford, ME, USA). DMEM was used as a suspension medium for breast cancer (MCF7), colorectal cancer (HCT116), prostate cancer (PC3), liver cancer (HePG2), pancreatic cancer (PACA2) and lung cancer (A549), while normal cell line (BJ1) was suspended in DMEM-F12 medium. The selected cell lines were purchased from American Type Culture Collection (ATCC). The media were supplemented with a 1% antimycotic-antibiotic mixture (10,000 µg/ml streptomycin sulfate, 25 µg/ml Amphotericin B, and 10,000 U/ml Potassium Penicillin) and 1% L-glutamine. 10 × 10^4cells/well were seeded in 96 well microtiter plates and incubated for 24 h at 37 ℃ under 5% carbon dioxide using a water-jacketed Carbon dioxide incubator (Sheldon, SCO5A, OR, USA). […] After the incubation time of 72 h, the medium was removed. Afterward, 40 µl MTT salt ([…]) was added to each well and kept for 4 h under the same conditions of 37 °C and 5% carbon dioxide. Finally, 200 μl of 10% Sodium dodecyl sulfate (SDS) in deionized water was added to each well and incubated overnight at 37 °C. The step of SDS addition was done to stop the reaction and dissolve the formed formazan crystals. The absorbance was then measured at a wavelength of 595 nm and the reference wavelength was set at 620 nm using a microplate multi-well reader (Bio-Rad Laboratories Inc., model 3356, California, USA). […] A statistical significance analysis was determined between the samples and the negative control using an independent t-test by SPSS 11 program. Dimethyl sulfoxide (DMSO) was the vehicle that dissolved our synthesized compounds and its concentration in the cells was less than 0.2%. IC50 values were calculated using the GraphPad Prism 6 program. The degree of selectivity of the synthetic compounds was expressed as SI = IC50 of a pure compound in a normal cell line/IC50 of the same pure compound in the cancer cell line, where IC50 is the concentration of the compound required to kill 50% of the cells.

[2] = test system: A549 lung cancer cells; assay: MTT assay, A549; settings: for IC50 / cytotoxicity at 100 µg/mL: Homo sapiens, A549, 72 h; for IC50: read-out: IC50 A549
Excerpt: as §1

[3] = test system: HCT116 colorectal cancer cells; assay: MTT assay, HCT116; settings: for IC50 / cytotoxicity at 100 µg/mL: Homo sapiens, HCT-116, 72 h; for IC50: read-out: IC50 HCT116
Excerpt: as §1

[4] = test system: PC3 prostate cancer cells; assay: MTT assay, PC3; settings: 72 h; for IC50 / cytotoxicity at 100 µg/mL: Homo sapiens; for IC50: read-out: IC50 PC3
Excerpt: as §1

[5] = test system: HePG2 liver cancer cells; assay: MTT assay, HePG2; settings: Homo sapiens, HepG2, 72 h; for IC50: read-out: IC50 HePG2; for cytotoxicity at 100 µg/mL: read-out: MTT cell proliferation mortality assay (%) HePG2
Excerpt: as §1

[6] = test system: PACA2 pancreatic cancer cells; assay: MTT assay, PACA2; settings: Homo sapiens, PaCa-2, 72 h; for cytotoxicity at 100 µg/mL: read-out: MTT cell proliferation mortality assay (%) PACA2; for IC50: read-out: IC50 PACA2
Excerpt: as §1

[7] = MTT assay, normal cell line BJ1; type: cell-based; settings: human, at 100 μg/ml, read-out: MTT cell proliferation mortality assay (%) BJ1
Excerpt: as §1

[8] = test system: caspase 8; assay: ELISA caspase 8 in MCF7 cells; type: cell-based, human; settings: MCF7 cells treated with IC50; untreated control 3.99
Excerpt: (§2) Elisa assay was used to determine the concentrations of Human caspases-3, -8, Bax, and Bcl2 in PACA2- and A549-treated cells. Also, the concentrations of caspase-8, Bax, and Bcl2 in MCF7-treated cells were detected. The procedures were followed up according to the instructions described in the following kits; Invitrogen human Caspase-3 Elisa Kit, Catalog KHO1091, DRG® human Caspase-8 ELISA Kit, Catalog (EIA-4863), Human Bax ELISA Kit (ab199080) and Human Bcl-2 ELISA Kit (ab119506) respectively. Shortly, the protocol described in the above kits was as followed; at the beginning, all the reagents, samples and standards were prepared. 100 μl of samples or standard were micro pipetted to each well of micro-well strip and kept at room temperature for 2 h. After washing the micro-well strips three times with washing buffer, the prepared antibody (anti-rabbit-IgG-HRP) at a concentration of 100 μl was added to each well at room temperature for 1 h. Then, the micro-well strips were washed again three times. Afterward, the prepared tetramethyl-benzidine (TMB) solution (100 μl) was added to the micro-well strips and kept for 10 min. At last, about 50 μl of stop solution was pipetted to each well to inactivate the enzyme completely. The absorbance of all samples was measured at a wavelength of 460 nm and compared to that of the standard. Curve fitting software was used to plot a standard curve and the concentrations for the unknown samples were measured from the standard curve.

[9] = test system: BAX; assay: ELISA BAX in MCF7 cells; type: cell-based, human; settings: MCF7 cells treated with IC50; untreated control 4.92
Excerpt: as §2

[10] = test system: Bcl2; assay: ELISA Bcl2 in MCF7 cells; type: cell-based, human; settings: MCF7 cells treated with IC50; untreated control 14.37
Excerpt: as §2

[11] = test system: P53; assay: RT-qPCR P53 mRNA in MCF7; type: cell-based, human; settings: MCF7, vs negative control
Experimental: (§3) All of the extractions were conducted on ice with ice-cold reagents. Total RNA from the different cell lines was isolated using Trizol (Invitrogen; Life Technologies, USA) according to the method of Sthoeger et al.. The 260:280 ratios were measured to determine RNA quality after the isolation method was completed according to the manufacturer’s instructions. A high-capacity cDNA reverse transcription kit was used to produce complementary DNA (cDNA) (Applied Biosystems, USA). […] The relative gene expression method (i.e., ΔΔCT) was used to analyze the real-time PCR data, as explained in Applied Biosystem User Bulletin No. 2. Each sample and gene were normalized using the β-actin gene.

[12] = test system: BAX; assay: RT-qPCR BAX mRNA in MCF7; type: cell-based, human; settings: MCF7, vs negative control
Experimental: as §3

[13] = test system: CDK4; assay: RT-qPCR CDK4 mRNA in MCF7; type: cell-based, human; settings: MCF7, vs negative control
Experimental: as §3

[14] = test system: IL-8; assay: RT-qPCR IL-8 mRNA in MCF7; type: cell-based, human; settings: MCF7, vs negative control
Experimental: as §3

[15] = test system: DR4; assay: RT-qPCR DR4 mRNA in MCF7; type: cell-based, human; settings: MCF7, vs negative control
Experimental: as §3

[16] = read-out: MTT cell proliferation mortality assay (%) A549, at 100 μg/ml, 72 h
[17] = read-out: MTT cell proliferation mortality assay (%) HCT116, at 100 μg/ml, 72 h
[18] = read-out: MTT cell proliferation mortality assay (%) PC3, at 100 μg/ml, 72 h

SMILES	IC50 [1]	cytotoxicity at 100 µg/mL [1]	IC50 [2]	cytotoxicity at 100 µg/mL [2, 16]	IC50 [3]	cytotoxicity at 100 µg/mL [3, 17]	IC50 [4]	cytotoxicity at 100 µg/mL [4, 18]	IC50 [5]	cytotoxicity at 100 µg/mL [5]	cytotoxicity at 100 µg/mL [6]	cytotoxicity at 72 h, 100 μg/ml [7]	caspase 8 level (ELISA) [8]	BAX level (ELISA) [9]	Bcl2 level (ELISA) [10]	P53 mRNA level [11]	BAX mRNA level [12]	CDK4 mRNA level [13]	IL-8 mRNA level [14]	DR4 mRNA level [15]	other results
COc1ccc(-c2c(Cl)n(-c3ccc(Cl)cc3Cl)c3ncnc(Cl)c23)cc1OC [Compound 4b, 4,6-dichloro-7-(2,4-dichlorophenyl)-5-(3,4-dimethoxyphenyl)-7H-pyrrolo[2,3-d]pyrimidine]	45.8 ± 1 µg/mL (≈ 97.6 µM)	90.3 ± 4.9%	17.5 ± 0.4 µg/mL (≈ 37.3 µM)	100%	58.4 ± 0.7 µg/mL (≈ 124 µM)	80 to 90%	28.5 ± 0.8 µg/mL (≈ 60.7 µM)	100%	84.3 ± 0.7 µg/mL (≈ 180 µM)	84.3 ± 0.9%	100%	22.5 ± 0.3%	–	–	–	–	–	–	–	–	cytotoxicity [1]: 80 to 95%; cytotoxicity [3, 17]: 90.2 ± 1%
NNc1ncnc2c1c(-c1ccc(Br)cc1)c(Cl)n2-c1ccc(Cl)cc1Cl [Compound 14a, 5-(4-bromophenyl)-6-chloro-7-(2,4-dichlorophenyl)-4-hydrazineyl-7H-pyrrolo[2,3-d]pyrimidine]	1.7 ± 0.4 µg/mL (≈ 3.52 µM)	100%	–	100%	–	100%	–	–	37.9 ± 0.9 µg/mL (≈ 78.4 µM)	100%	100%	30.8 ± 0.2%	8.76 pg/mL	9.99 pg/mL	2.4 pg/mL	significantly increased; also recorded: up-regulated	up-regulated	lowered; also recorded: down-regulated	lowered; also recorded: down-regulated	increased; also recorded: up-regulated	–
COc1ccc(-c2c(Cl)n(-c3ccc(Cl)cc3Cl)c3ncnc(NN)c23)cc1OC [Compound 14b, 6-chloro-7-(2,4-dichlorophenyl)-5-(3,4-dimethoxyphenyl)-4-hydrazineyl-7H-pyrrolo[2,3-d]pyrimidine]	16.8 ± 0.9 µg/mL (≈ 36.1 µM)	94.9 ± 1.1%	–	100%	–	100%	18.7 ± 0.2 µg/mL (≈ 40.2 µM)	100%	17.5 ± 0.8 µg/mL (≈ 37.7 µM)	100%	100%	–	18.263 pg/mL	14.25 pg/mL	8.25 pg/mL	significantly increased; also recorded: up-regulated	up-regulated	lowered; also recorded: down-regulated	lowered; also recorded: down-regulated	increased; also recorded: up-regulated	cytotoxicity [1]: 80 to 95%
COc1ccc(-c2c(Cl)n(-c3ccc(Cl)cc3Cl)c3ncnc(N4CCN(C)CC4)c23)cc1OC [Compound 16b, 6-chloro-7-(2,4-dichlorophenyl)-5-(3,4-dimethoxyphenyl)-4-(4-methylpiperazin-1-yl)-7H-pyrrolo[2,3-d]pyrimidine]	5.7 ± 0.9 µg/mL (≈ 10.7 µM)	100%	–	100%	–	–	–	–	–	–	100%	–	14.72 pg/mL	13.25 pg/mL	4.25 pg/mL	up-regulated; also recorded: significantly increased	up-regulated	lowered	lowered	increased	–
CN1CCN(c2nc(C(Cl)(Cl)Cl)nc3c2c(-c2ccc(Br)cc2)c(Cl)n3-c2ccc(Cl)cc2Cl)CC1 [Compound 17, 5-(4-bromophenyl)-6-chloro-7-(2,4-dichlorophenyl)-4-(4-methylpiperazin-1-yl)-2-(trichloromethyl)-7H-pyrrolo[2,3-d]pyrimidine]	–	74.3 ± 1.7%	34.1 ± 1.5 µg/mL (≈ 51 µM)	80 to 90%	37.8 ± 0.4 µg/mL (≈ 56.5 µM)	100%	66.8 ± 2 µg/mL (≈ 99.8 µM)	80 to 90%	8.7 ± 0.8 µg/mL (≈ 13 µM)	100%	100%	12.5 ± 1.7%	–	–	–	–	–	–	–	–	cytotoxicity [2, 16]: 89.2 ± 0.4%; cytotoxicity ([4]; read-out: MTT cell proliferation mortality assay (%) PC3, at 100 μg/ml): 79.5 ± 0.5%; IC50 [6]: 6.4 ± 0.7 µg/mL (≈ 9.57 µM)
COc1cccc2c1C(=O)c1c(O)c3c(c(O)c1C2=O)C[C@@](O)(C(=O)CO)C[C@@H]3O[C@H]1C[C@H](N)[C@H](O)[C@H](C)O1 [Dox, Doxorubicin, reference compound]	26.1 ± 0.1 µg/mL (≈ 48 µM)	100%	28.3 ± 1.3 µg/mL (≈ 52.1 µM)	–	37.6 ± 0.8 µg/mL (≈ 69.2 µM)	–	23.8 ± 0.2 µg/mL (≈ 43.8 µM)	–	21.6 ± 0.8 µg/mL (≈ 39.7 µM)	100%	100%	–	–	–	–	up-regulated	up-regulated	lowered	lowered	increased	cytotoxicity at 100 µg/mL ([2]; read-out: MTT cell proliferation mortality assay (%) A549): 100%; cytotoxicity at 100 µg/mL ([3]; read-out: MTT cell proliferation mortality assay (%) HCT116): 100%; cytotoxicity at 100 µg/mL ([4]; read-out: MTT cell proliferation mortality assay (%) PC3): 100%; IC50 [6]: 28.3 ± 0.4 µg/mL (≈ 52.1 µM)
